Results taken from ChEMBL document CHEMBL5393457, “Combined inhibition of amino acid transporters for inhibiting human plasmacytoid dendritic cell activity during autoimmunity” (2022).
The source made the active and inactive calls.

What was measured:
[1] = target: Large neutral amino acids transporter small subunit 1 (Homo sapiens) (UniProt Q01650); experiment: Inhibition of SLC7A5 in CpG-A-stimulated human plasmacytoid dendritic cells at 5 to 10 uM assessed as decrease in pS6 levels; type: cell-based; conditions: Plasmacytoid dendritic cell, dose 5-10 µM
[2] = target: Large neutral amino acids transporter small subunit 1 (Homo sapiens) (UniProt Q01650); experiment: Inhibition of SLC7A5 in CpG-A-stimulated human plasmacytoid dendritic cells at 5 to 10 uM assessed as decrease in TNF production; type: cell-based; conditions: Plasmacytoid dendritic cell, dose 5-10 µM
[3] = system: Plasmacytoid dendritic cell; experiment: Inhibition of SLC7A5/SLC3A2 in IL-3 and CpG-A-stimulated human plasmacytoid dendritic cells at 1 to 2 uM assessed as decrease in IFN-alpha production in presence of 100 uM sulfasalazine; type: cell-based; conditions: dose 1-2 µM
[4] = system: Plasmacytoid dendritic cell; experiment: Inhibition of SLC7A5/SLC3A2 in IL-3 and CpG-A-stimulated human plasmacytoid dendritic cells at 1 to 2 uM assessed as decrease in TNF production in presence of 100 uM sulfasalazine; type: cell-based; conditions: dose 1-2 µM
[5] = target: Large neutral amino acids transporter small subunit 1 (Homo sapiens) (UniProt Q01650); experiment: Inhibition of SLC7A5 in CpG-A-stimulated human plasmacytoid dendritic cells at 5 to 10 uM assessed as decrease in IFN-alpha production; type: cell-based; conditions: Plasmacytoid dendritic cell, dose 5-10 µM
[6] = target: Large neutral amino acids transporter small subunit 1 (Homo sapiens) (UniProt Q01650); experiment: Inhibition of SLC7A5 in CpG-A-stimulated human plasmacytoid dendritic cells at 5 to 10 uM assessed as decrease in kynurenine transport; type: cell-based; conditions: Plasmacytoid dendritic cell, dose 5-10 µM
[7] = target: T1, Janus Kinase (JAK) (Homo sapiens) (UniProt P52333+P23458+O60674+P29597); experiment: Inhibition of JAK in IL-3 and CpG-A-stimulated human plasmacytoid dendritic cells at 0.2 to 20 uM assessed as decrease in TNF production; type: cell-based; conditions: Plasmacytoid dendritic cell, dose 0.2-20 µM
[8] = target: T1, Janus Kinase (JAK) (Homo sapiens); experiment: Inhibition of JAK in IL-3 and CpG-A-stimulated human plasmacytoid dendritic cells at 0.2 to 20 uM assessed as decrease in IFN-alpha production; type: cell-based; conditions: Plasmacytoid dendritic cell, dose 0.2-20 µM
[9] = target: T2, Cystine/glutamate transporter (Homo sapiens) (UniProt Q9UPY5); experiment: Inhibition of XCT in IL-3 and CpG-A-stimulated human plasmacytoid dendritic cells at 100 uM assessed as decrease in TNF production in presence of 0.2 to 5 ug/ml IGN523; type: cell-based; conditions: Plasmacytoid dendritic cell
T2 sequence (whole entry): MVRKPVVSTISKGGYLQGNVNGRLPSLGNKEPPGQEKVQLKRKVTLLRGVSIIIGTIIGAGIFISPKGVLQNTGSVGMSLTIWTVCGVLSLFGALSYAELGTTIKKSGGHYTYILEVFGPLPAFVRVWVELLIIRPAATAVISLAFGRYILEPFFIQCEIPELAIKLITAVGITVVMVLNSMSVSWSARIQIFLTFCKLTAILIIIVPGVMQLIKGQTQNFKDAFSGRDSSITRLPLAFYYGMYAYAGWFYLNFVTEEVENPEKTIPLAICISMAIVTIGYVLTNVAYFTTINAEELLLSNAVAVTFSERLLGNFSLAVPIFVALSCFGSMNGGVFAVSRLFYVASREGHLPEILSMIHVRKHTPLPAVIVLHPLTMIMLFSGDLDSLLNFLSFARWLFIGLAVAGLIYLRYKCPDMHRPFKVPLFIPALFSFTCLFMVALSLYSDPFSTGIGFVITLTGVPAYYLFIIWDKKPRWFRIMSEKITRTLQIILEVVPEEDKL

[10] = target: T2, Cystine/glutamate transporter (Homo sapiens); experiment: Inhibition of XCT in IL-3 and CpG-A-stimulated human plasmacytoid dendritic cells at 100 uM assessed as decrease in TNF production in presence of 1 to 2 uM JPH203; type: cell-based; conditions: Plasmacytoid dendritic cell
[11] = target: T2, Cystine/glutamate transporter (Homo sapiens); experiment: Inhibition of XCT in IL-3 and CpG-A-stimulated human plasmacytoid dendritic cells at 100 uM assessed as decrease in TNF production in presence of 10 to 50 nM IQDMA; type: cell-based; conditions: Plasmacytoid dendritic cell
[12] = target: T2, Cystine/glutamate transporter (Homo sapiens); experiment: Inhibition of XCT in CpG-A-activated human plasmacytoid dendritic cells at 200 uM assessed as decrease in TNF production; type: cell-based; conditions: Plasmacytoid dendritic cell
[13] = target: T2, Cystine/glutamate transporter (Homo sapiens); experiment: Inhibition of XCT in CpG-A-activated human plasmacytoid dendritic cells at 200 uM assessed as decrease in kynurenine uptake; type: cell-based; conditions: Plasmacytoid dendritic cell
[14] = target: T2, Cystine/glutamate transporter (Homo sapiens); experiment: Inhibition of XCT in IL-3 and CpG-A-stimulated human plasmacytoid dendritic cells at 100 uM assessed as decrease in IFN-alpha production in presence of 1 to 2 uM AC-4-130; type: cell-based; conditions: Plasmacytoid dendritic cell
[15] = target: T2, Cystine/glutamate transporter (Homo sapiens); experiment: Inhibition of XCT in IL-3 CpG-A-activated human plasma at 200 uM assessed as decrease in pDC activation
[16] = target: T2, Cystine/glutamate transporter (Homo sapiens); experiment: Inhibition of XCT in CpG-A-activated human plasmacytoid dendritic cells at 200 uM assessed as decrease in ENPP2 expression; type: cell-based; conditions: Plasmacytoid dendritic cell
[17] = target: T2, Cystine/glutamate transporter (Homo sapiens); experiment: Inhibition of XCT in IL-3 and CpG-A-stimulated human plasmacytoid dendritic cells at 100 uM assessed as decrease in IFN-alpha production in presence of 1 to 2 uM pimozide; type: cell-based; conditions: Plasmacytoid dendritic cell
[18] = target: T2, Cystine/glutamate transporter (Homo sapiens); experiment: Inhibition of XCT in CpG-A-activated human plasmacytoid dendritic cells at 100 uM assessed as decrease in IFN-alpha production in presence of 25 to 100 uM baricitinib; type: cell-based; conditions: Plasmacytoid dendritic cell
[19] = target: T2, Cystine/glutamate transporter (Homo sapiens); experiment: Inhibition of XCT in IL-3 CpG-A-activated human plasma at 100 uM assessed as decrease in pDC activation in presence of 0.1 uM baricitinib
[20] = target: T2, Cystine/glutamate transporter (Homo sapiens); experiment: Inhibition of XCT in IL-3 and CpG-A-stimulated human plasmacytoid dendritic cells at 100 uM assessed as decrease in IFN-alpha production in presence of 10 to 50 nM IQDMA; type: cell-based; conditions: Plasmacytoid dendritic cell
[21] = target: T2, Cystine/glutamate transporter (Homo sapiens); experiment: Inhibition of XCT in IL-3 and CpG-A-stimulated human plasmacytoid dendritic cells at 100 uM assessed as decrease in TNF production in presence of 1 to 2 uM AC-4-130; type: cell-based; conditions: Plasmacytoid dendritic cell
[22] = target: T2, Cystine/glutamate transporter (Homo sapiens); experiment: Inhibition of XCT in IL-3 and CpG-A-stimulated human plasmacytoid dendritic cells assessed as decrease in TNF production in presence of mavrilimumab; type: cell-based; conditions: Plasmacytoid dendritic cell
[23] = target: T2, Cystine/glutamate transporter (Homo sapiens); experiment: Inhibition of XCT in CpG-A-activated human plasmacytoid dendritic cells at 200 uM assessed as decrease in S6 phosphorylation; type: cell-based; conditions: Plasmacytoid dendritic cell
[24] = target: T2, Cystine/glutamate transporter (Homo sapiens); experiment: Inhibition of XCT in IL-3 and CpG-A-stimulated human plasmacytoid dendritic cells at 100 uM assessed as decrease in IFN-alpha production in presence of 0.2 to 5 ug/ml IGN523; type: cell-based; conditions: Plasmacytoid dendritic cell
[25] = target: T2, Cystine/glutamate transporter (Homo sapiens); experiment: Inhibition of XCT in CpG-A-activated human plasmacytoid dendritic cells at 200 uM assessed as decrease in MYO1E expression; type: cell-based; conditions: Plasmacytoid dendritic cell
[26] = target: T2, Cystine/glutamate transporter (Homo sapiens); experiment: Inhibition of XCT in IL-3 and CpG-A-stimulated human plasmacytoid dendritic cells at 100 uM assessed as decrease in IFN-alpha production in presence of 1 to 2 uM JPH203; type: cell-based; conditions: Plasmacytoid dendritic cell
[27] = target: T2, Cystine/glutamate transporter (Homo sapiens); experiment: Inhibition of XCT in IL-3 and CpG-A-stimulated human plasmacytoid dendritic cells at 100 uM assessed as decrease in TNF production in presence of 1 to 2 uM pimozide; type: cell-based; conditions: Plasmacytoid dendritic cell
[28] = target: T2, Cystine/glutamate transporter (Homo sapiens); experiment: Inhibition of XCT in IL-3 and CpG-A-stimulated human plasmacytoid dendritic cells assessed as decrease in IFN-alpha production in presence of mavrilimumab; type: cell-based; conditions: Plasmacytoid dendritic cell
[29] = target: T2, Cystine/glutamate transporter (Homo sapiens); experiment: Inhibition of XCT in CpG-A-activated human plasmacytoid dendritic cells at 200 uM assessed as decrease in IFN-alpha production; type: cell-based; conditions: Plasmacytoid dendritic cell
[30] = target: Tyrosine-protein kinase JAK2 (Homo sapiens) (UniProt O60674); experiment: Inhibition of JAK2 in CpG-A-activated human plasmacytoid dendritic cells at 100 uM assessed as decrease in TNF production in presence of 25 to 100 uM baricitinib; type: cell-based; conditions: Plasmacytoid dendritic cell

Measured: inhibition

Chain of Large neutral amino acids transporter small subunit 1 (Homo sapiens) (Q01650 whole entry): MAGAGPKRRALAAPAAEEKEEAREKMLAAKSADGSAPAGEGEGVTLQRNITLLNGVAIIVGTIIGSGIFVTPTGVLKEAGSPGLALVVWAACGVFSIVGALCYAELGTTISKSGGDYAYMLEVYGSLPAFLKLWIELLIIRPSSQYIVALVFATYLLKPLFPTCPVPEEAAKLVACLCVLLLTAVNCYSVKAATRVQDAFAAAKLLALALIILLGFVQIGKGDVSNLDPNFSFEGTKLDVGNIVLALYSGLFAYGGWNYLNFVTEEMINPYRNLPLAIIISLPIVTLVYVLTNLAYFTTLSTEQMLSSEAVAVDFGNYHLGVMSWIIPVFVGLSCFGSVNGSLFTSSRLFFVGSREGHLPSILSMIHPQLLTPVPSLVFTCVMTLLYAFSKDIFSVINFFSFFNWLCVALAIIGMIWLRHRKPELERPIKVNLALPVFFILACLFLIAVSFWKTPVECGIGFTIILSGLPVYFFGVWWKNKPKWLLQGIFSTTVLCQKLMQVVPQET
Chain of Tyrosine-protein kinase JAK2 (Homo sapiens) (O60674 whole entry): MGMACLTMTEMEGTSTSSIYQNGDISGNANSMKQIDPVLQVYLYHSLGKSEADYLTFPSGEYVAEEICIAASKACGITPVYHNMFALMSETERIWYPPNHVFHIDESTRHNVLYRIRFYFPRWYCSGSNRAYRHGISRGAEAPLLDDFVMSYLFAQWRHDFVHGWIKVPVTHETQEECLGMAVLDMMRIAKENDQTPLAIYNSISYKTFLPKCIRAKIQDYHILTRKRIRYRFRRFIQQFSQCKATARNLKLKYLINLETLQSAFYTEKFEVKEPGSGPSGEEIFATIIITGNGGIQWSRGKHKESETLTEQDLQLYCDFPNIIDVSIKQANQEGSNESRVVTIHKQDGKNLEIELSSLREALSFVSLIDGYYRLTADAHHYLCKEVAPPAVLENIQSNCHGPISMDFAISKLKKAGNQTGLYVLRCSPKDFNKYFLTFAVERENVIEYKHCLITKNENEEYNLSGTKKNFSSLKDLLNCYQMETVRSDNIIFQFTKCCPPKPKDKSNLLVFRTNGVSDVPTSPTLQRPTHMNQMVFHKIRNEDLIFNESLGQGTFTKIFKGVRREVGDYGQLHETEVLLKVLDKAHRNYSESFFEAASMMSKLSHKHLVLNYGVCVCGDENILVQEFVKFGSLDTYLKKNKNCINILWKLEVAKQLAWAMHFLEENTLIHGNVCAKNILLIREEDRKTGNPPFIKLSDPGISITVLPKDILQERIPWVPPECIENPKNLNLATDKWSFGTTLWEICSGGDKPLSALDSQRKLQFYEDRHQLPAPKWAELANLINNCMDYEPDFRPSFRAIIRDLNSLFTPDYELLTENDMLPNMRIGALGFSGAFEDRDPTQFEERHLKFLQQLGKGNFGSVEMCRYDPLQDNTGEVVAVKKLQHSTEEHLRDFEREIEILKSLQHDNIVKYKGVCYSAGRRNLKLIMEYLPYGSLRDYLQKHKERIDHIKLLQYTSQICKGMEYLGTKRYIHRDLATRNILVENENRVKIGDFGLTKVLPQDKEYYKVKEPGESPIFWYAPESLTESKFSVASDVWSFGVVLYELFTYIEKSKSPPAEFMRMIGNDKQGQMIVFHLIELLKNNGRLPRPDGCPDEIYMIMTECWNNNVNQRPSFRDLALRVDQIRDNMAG

Nc1cc(COc2c(Cl)cc(C[C@H](N)C(=O)O)cc2Cl)c2oc(-c3ccccc3)nc2c1
active: [1] | [2] | [3] | [4] | [5] | [6]

CN(Cc1cnc2nc(N)nc(N)c2n1)c1ccc(C(=O)N[C@@H](CCC(=O)O)C(=O)O)cc1
active: [7] | [8]

O=C(O)c1cc(/N=N/c2ccc(S(=O)(=O)Nc3ccccn3)cc2)ccc1O
active: [9] | [10] | [11] | [12] | [13] | [14] | [15] | [16] | [17] | [18] | [19] | [20] | [21] | [22] | [23] | [24] | [25] | [26] | [27] | [28] | [29] | [30]
